This note sets out measurements from US20060024264A1, “Antimicrobial copolymers and uses thereof” (priority 2004, published 2006).

This experiment has as its system E. coli. Nature of the experiment: Antimicrobial assays (MIC, cell growth by optical density at 595 nm). The format is cell-based. Conditions: Escherichia coli; incubation time 18 hours; 2-fold dilution series 500-3.9 μg/mL. How it is done:
Antimicrobial assays. Each polymer was dissolved in DMSO (5 mg/mL). […] The polymer solutions with E. coli were incubated at 36° C. for 18 hours, and cell growth was measured by optical density at λ=595 nm (Liu, D., et al., Angew. Chem. Int. Ed., 43:1158 (2004); Tew, G. N., et al., PNAS 99:5110 (2002)).

For orientation: MIC means the lowest concentration that inhibits growth of the organism. Low values mean a more susceptible organism, high ones a less susceptible organism. Turning to `C=C(C)C(=O)OCCN.Cl` [Monomer, 2-aminoethyl methacrylate hydrochloride], the MIC was greater than 500 µg/mL.
